Tests used:
[1] = tested on: colon cancer cells (HCT116); test: Cancer cell line growth inhibition (SRB assay); format: cell-based; conditions: Homo sapiens, HCT-116; HCT116 colon cancer cells, SRB assay; read-out: Cancer Cell Line GI50 Range HCT116
[2] = tested on: ovarian cancer cells (PA-1); test: Cancer cell line growth inhibition (SRB assay); format: cell-based; conditions: PA-1 ovarian cancer cells, SRB assay; read-out: Cancer Cell Line GI50 Range PA-1
TICs (Colon 12) = test: Colon tumor-initiating cell growth inhibition (Alamar Blue); format: cell-based; conditions: 216 h; colon TICs, 9 days, Alamar Blue; read-out: Tumor Initiating Cell GI50 Range Colon 12
TICs (Ovarian 2393A) = test: Ovarian tumor-initiating cell growth inhibition (Alamar Blue); format: cell-based; conditions: 144 h; ovarian TICs, 6 days, Alamar Blue; read-out: Tumor Initiating Cell GI50 Range Ovarain 2393A
human PLK4 = biological target: T1, human PLK4 (Homo sapiens, UniProt O00444); test: PLK4 inhibition assay (indirect ELISA); format: biochemical; conditions: 15 μM ATP
T1 construct: amino terminal GST fusion of residues 1-391 of human PLK4; made in house; host or cells: E. coli
T1 sequence (O00444 1-391): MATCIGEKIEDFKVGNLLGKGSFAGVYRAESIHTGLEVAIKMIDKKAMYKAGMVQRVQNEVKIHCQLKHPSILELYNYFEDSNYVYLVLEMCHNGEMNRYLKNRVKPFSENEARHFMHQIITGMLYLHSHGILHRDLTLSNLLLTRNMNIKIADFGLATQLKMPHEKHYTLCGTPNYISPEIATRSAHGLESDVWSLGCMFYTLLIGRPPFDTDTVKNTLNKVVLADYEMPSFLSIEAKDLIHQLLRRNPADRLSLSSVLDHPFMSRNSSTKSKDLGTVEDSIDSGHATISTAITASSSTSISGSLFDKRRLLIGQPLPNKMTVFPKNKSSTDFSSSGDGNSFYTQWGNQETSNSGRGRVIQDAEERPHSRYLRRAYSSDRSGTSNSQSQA
How it was run: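 Dephosphorylated GST-PLK4 (residues 1-391, E. coli; 4 nM) was preincubated 15 min with compound, then reacted 30 min with 15 μM ATP in HEPES pH 7.4, MgCl2, Brij 35 on MBP-coated plates. Phospho-MBP was detected by antibody/HRP ELISA at 450 nm; IC50 from 10-point titration by 4-parameter logistic fit, or single 10 μM % inhibition.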

Row | GI50 [1] | GI50 [2] | GI50 (TICs (Colon 12)) | GI50 (TICs (Ovarian 2393A)) | IC50 (human PLK4) | SMILES
1 | < 100 nM | 100 to 500 nM | < 100 nM | 100 to 500 nM | < 50 nM | CC[C@@H](NC(=O)c1ccc2[nH]nc(-c3ccc(OC4CCN(CCOC)CC4)cc3)c2c1)c1ccccc1Cl [Example A128, (R)-N-(1-(2-chlorophenyl)propyl)-3-(4-((1-(2-methoxyethyl)piperidin-4-yl)oxy)phenyl)-1H-indazole-5-carboxamide]
2 | < 100 nM | < 100 nM | 100 to 500 nM | > 500 nM | < 50 nM | CC(C)OC(C(=O)Nc1ccc2[nH]nc(-c3ccc(OC4CCN(C)CC4)cc3)c2c1)c1ccccc1 (centres unmarked) [Example A187, 2-isopropoxy-N-(3-(4-((1-methylpiperidin-4-yl)oxy)phenyl)-1H-indazol-5-yl)-2-phenylacetamide]
3 | < 100 nM | 100 to 500 nM | > 500 nM | 100 to 500 nM | < 50 nM | CN1CCC(Oc2ccc(-c3n[nH]c4ccc(C(=O)N[C@H](CCO)c5ccccc5)cc34)cc2)CC1 [Example A137, (R)-N-(3-hydroxy-1-phenylpropyl)-3-(4-((1-methylpiperidin-4-yl)oxy)phenyl)-1H-indazole-5-carboxamide]
4 | < 100 nM |  | < 100 nM | 100 to 500 nM | < 50 nM | O=C(Nc1ccc2[nH]nc(-c3ccc(OC4CCOCC4)cc3)c2c1)C(c1ccsc1)N1CCCC1 (centres unmarked) [Example A29, 2-(pyrrolidin-1-yl)-N-(3-(4-((tetrahydro-2H-pyran-4-yl)oxy)phenyl)-1H-indazol-5-yl)-2-(thiophen-3-yl)acetamide]
5 | < 100 nM | < 100 nM | < 100 nM | 100 to 500 nM | < 50 nM | CN1CCC(Oc2ccc(-c3n[nH]c4ccc(C(=O)NC(c5ccsc5)C5CCCC5)cc34)cc2)CC1 (centres unmarked) [Example A110, N-(cyclopentyl(thiophen-3-yl)methyl)-3-(4-((1-methylpiperidin-4-yl)oxy)phenyl)-1H-indazol-5-carboxamide]
6 | 100 to 500 nM | 100 to 500 nM | > 500 nM | > 500 nM | < 50 nM | CN1CCC(Oc2ccc(-c3n[nH]c4ccc(C(=O)NC(c5ccccc5)C5CC5)cc34)cc2Cl)CC1 (centres unmarked) [Example A188, 3-(3-chloro-4-((1-methylpiperidin-4-yl)oxy)phenyl)-N-(cyclopropyl(phenyl)methyl)-1H-indazole-5-carboxamide]
7 | < 100 nM | < 100 nM | < 100 nM | < 100 nM | < 50 nM | O=CN1CCC(Oc2ccc(-c3n[nH]c4ccc(C(=O)NC(c5ccsc5)C5CC5)cc34)cc2)CC1 (centres unmarked) [Example A186, N-(cyclopropyl(thiophen-3-yl)methyl)-3-(4-((1-formylpiperidin-4-yl)oxy)phenyl)-1H-indazole-5-carboxamide]
8 | < 100 nM | < 100 nM | < 100 nM | < 100 nM | < 50 nM | CN1CCC(Oc2ccc(-c3n[nH]c4ccc(C(=O)NC(c5ccccc5Cl)C5CC5)cc34)cc2)CC1 (centres unmarked) [Example A150, N-((2-chlorophenyl)(cyclopropyl)methyl)-3-(4-((1-methylpiperidin-4-yl)oxy)phenyl)-1H-indazole-5-carboxamide]
9 | < 100 nM | < 100 nM | < 100 nM | 100 to 500 nM | < 50 nM | Cc1ccccc1C(C(=O)Nc1ccc2[nH]nc(-c3ccc(OC4CCN(C)CC4)cc3)c2c1)N1CCCC1 (centres unmarked) [Example A133, N-(3-(4-((1-methylpiperidin-4-yl)oxy)phenyl)-1H-indazol-5-yl)-2-(pyrrolidin-1-yl)-2-(o-tolyl)acetamide]
10 | 100 to 500 nM | 100 to 500 nM | 100 to 500 nM | > 500 nM | < 50 nM | CCOC(C(=O)Nc1ccc2[nH]nc(-c3ccc(OC4CCN(C)CC4)cc3)c2c1)c1ccccc1 (centres unmarked) [Example A181, 2-ethoxy-N-(3-(4-((1-methylpiperidin-4-yl)oxy)phenyl)-1H-indazol-5-yl)-2-phenylacetamide]
11 | < 100 nM | < 100 nM | 100 to 500 nM | < 100 nM | < 50 nM | O=CN1CCC(Oc2ccc(-c3n[nH]c4ccc(NC(=O)C(c5ccsc5)N5CCCC5)cc34)cc2)CC1 (centres unmarked) [Example A118, N-(3-(4-((1-formylpiperidin-4-yl)oxy)phenyl)-1H-indazol-5-yl)-2-(pyrrolidin-1-yl)-2-(thiophen-3-yl)acetamide]
12 | < 100 nM | < 100 nM | 100 to 500 nM | 100 to 500 nM | < 50 nM | CN1CCC(Oc2ccc(-c3n[nH]c4ccc(C(=O)N[C@H](CCO)c5ccccc5)cc34)cc2Cl)CC1 [Example A202, (R)-3-(3-chloro-4-((1-methylpiperidin-4-yl)oxy)phenyl)-N-(3-hydroxy-1-phenylpropyl)-1H-indazole-5-carboxamide]
13 | < 100 nM | < 100 nM | 100 to 500 nM | < 100 nM | < 50 nM | COCCN1CCC(Oc2ccc(-c3n[nH]c4ccc(NC(=O)C(c5ccsc5)N5CCCC5)cc34)cc2)CC1 (centres unmarked) [Example A175, N-(3-(4-((1-(2-methoxyethyl)piperidin-4-yl)oxy)phenyl)-1H-indazol-5-yl)-2-(pyrrolidin-1-yl)-2-(thiophen-3-yl)acetamide]
14 | < 100 nM | < 100 nM | < 100 nM | < 100 nM | < 50 nM | CN1CCC(Oc2ccc(-c3n[nH]c4ccc(C(=O)N[C@@H](c5sccc5Cl)C5CC5)cc34)cc2)CC1 [Example A166, (R)-N-((3-chlorothiophen-2-yl)(cyclopropyl)methyl)-3-(4-((1-methylpiperidin-4-yl)oxy)phenyl)-1H-indazole-5-carboxamide]
15 | 100 to 500 nM | 100 to 500 nM | 100 to 500 nM | 100 to 500 nM | < 50 nM | O=CN1CCC(Oc2ccc(-c3n[nH]c4ccc(NC(=O)C(c5ccccn5)C5CCCC5)cc34)cc2)CC1 (centres unmarked) [Example A176, 2-cyclopentyl-N-(3-(4-((1-formylpiperidin-4-yl)oxy)phenyl)-1H-indazol-5-yl)-2-(pyridin-2-yl)acetamide]
16 | < 100 nM | < 100 nM | 100 to 500 nM | < 100 nM | < 50 nM | O=C(Nc1ccc2[nH]nc(-c3ccc(OC4CCN(C5COC5)CC4)cc3)c2c1)C(c1ccsc1)N1CCCC1 (centres unmarked) [Example A184, N-(3-(4-((1-(oxetan-3-yl)piperidin-4-yl)oxy)phenyl)-1H-indazol-5-yl)-2-(pyrrolidin-1-yl)-2-(thiophen-3-yl)acetamide]
17 | < 100 nM | < 100 nM | < 100 nM | 100 to 500 nM | < 50 nM | CN1CCC(Oc2ccc(-c3n[nH]c4ccc(NC(=O)C(c5ccccc5)C5CC5)cc34)cc2)CC1 (centres unmarked) [Example A138, 2-cyclopropyl-N-(3-(4-((1-methylpiperidin-4-yl)oxy)phenyl)-1H-indazol-5-yl)-2-phenylacetamide]
18 | < 100 nM | 100 to 500 nM | < 100 nM | < 100 nM | < 50 nM | CN1CCC(Oc2ccc(-c3n[nH]c4ccc(C(=O)N[C@H](c5sccc5Cl)C5CC5)cc34)cc2)CC1 [Example A167, (S)-N-((3-chlorothiophen-2-yl)(cyclopropyl)methyl)-3-(4-((1-methylpiperidin-4-yl)oxy)phenyl)-1H-indazole-5-carboxamide]
19 | < 100 nM | 100 to 500 nM | < 100 nM | < 100 nM | < 50 nM | COCCN1CCC(Oc2ccc(-c3n[nH]c4ccc(C(=O)N[C@H](c5ccsc5)C5CC5)cc34)cc2)CC1 [Example A154, (S)-N-(cyclopropyl(thiophen-3-yl)methyl)-3-(4-((1-(2-methoxyethyl)piperidin-4-yl)oxy)phenyl)-1H-indazole-5-carboxamide]
20 | < 100 nM | < 100 nM | < 100 nM | 100 to 500 nM | < 50 nM | CC[C@H](NC(=O)c1ccc2[nH]nc(-c3ccc(OC4CCN(C5COC5)CC4)cc3)c2c1)c1ccccc1Cl [Example A193, (S)-N-(1-(2-chlorophenyl)propyl)-3-(4-((1-(oxetan-3-yl)piperidin-4-yl)oxy)phenyl)-1H-indazole-5-carboxamide]
21 | < 100 nM | < 100 nM | > 500 nM | < 100 nM | < 50 nM | CN1CCC(Oc2ccc(-c3n[nH]c4ccc(C(=O)NC(c5ccccc5F)C5CC5)cc34)cc2)CC1 (centres unmarked) [Example A136, N-(cyclopropyl(2-fluorophenyl)methyl)-3-(4-((1-methylpiperidin-4-yl)oxy)phenyl)-1H-indazole-5-carboxamide]

Source: patent publication US9580390B2, “Indazole compounds as kinase inhibitors and method of treating cancer with same” (University Health Network, priority 2011, dated 2017)
